The text below walks through data of paper PMC12300381, “Synthesis, Biological Evaluation, and In Silico Characterization of Novel Imidazothiadiazole–Chalcone Hybrids as Multi-Target Enzyme Inhibitors” (Pharmaceuticals, 2025).

Holding throughout (type): biochemical
Conditions in all cases: for IC50: Table 2

The target in one assay is hCA I (Homo sapiens, UniProt P00915). The assay can be described thus: hCA I esterase activity inhibition (Verpoorte method, p-nitrophenylacetate). The procedure: (§1) The activities of the CA isoenzymes were measured in accordance with Verpoorte et al.’s previously described methodology. […] There was 400 µL of Tris–HCl buffer (pH 7.4), 360 µL of PNA (3.0 mM), 220 µL of H2O, and 20 µL of purified hCA isoenzyme in the reaction mixture. The identical cuvette was prepared without the enzyme in order to obtain a control measurement. The standard protein was bovine serum albumin.
(§2) To determine the IC50 values of the tested compounds, enzyme activity measurements were conducted at five to six different inhibitor concentrations. Percent activity values were calculated for each dose, taking into account the compounds’ molecular weights and dilution factors.
(§3) The IC50 study was completed prior to the Kᵢ determination. For the Kᵢ analysis, three selected concentrations of each inhibitor were used alongside a control (uninhibited) reaction.
(§4) Kᵢ values and standard deviations were calculated based on the type of inhibition (competitive or non-competitive), as inferred from the intersection pattern of the Lineweaver–Burk lines. These kinetic parameters allowed for further insight into the binding affinities and inhibition mechanisms of the compounds.

In another assay the target is hCA II (Homo sapiens, UniProt P00918). As to the kind of experiment: hCA II esterase activity inhibition (Verpoorte method, p-nitrophenylacetate). The procedure: as §1, §2
The IC50 study was completed prior to the Kᵢ determination. For the Kᵢ analysis, three selected concentrations of each inhibitor were used alongside a control (uninhibited) reaction. Enzyme activity data were converted to 1/V values and plotted against 1/[S] to generate Lineweaver–Burk plots.
as §4

The target of a further assay is T1, BChE (Equus caballus, UniProt P81908).
T1 construct: BChE (C1057-1KU), extracted from equine serum; purchased Sigma-Aldrich Chemie, St. Louis, MO, USA C1057-1KU; host or cells: equine serum
As to the kind of experiment: biochemical. As to the method: (§5) The previously published Ellman’s technique was used to measure the BChE and AChE activities. AChE (C2888-500UN) from Electrophorus electricus and BChE (C1057-1KU), extracted from equine serum, were both obtained from Sigma-Aldrich Chemie, St. Louis, MO, USA. The BChE/AChE activities were measured using 5,5′-dithiobis(2-nitrobenzoic acid) (DTNB) and butyrylthiocholine iodide (BChI)/[…] (AChI). In short, […] of the sample solutions with varying concentrations was dissolved in deionized water along with 100 µL of buffer (Tris–HCl, 1.0 M, pH 8.0). […] A fraction of DTNB (50 µL, 0.5 mM) was added following incubation. Finally, 50 µL of BChI/AChI (10/10 mM) was added to initiate the reaction. […] All enzymatic activity determination solutions, except AChE/BChE, were included in the negative control.
as §2, §3, §4

Another assay addresses T2, AChE (Electrophorus electricus, UniProt O42275).
T2 construct: purchased Sigma-Aldrich Chemie, St. Louis, MO, USA C2888-500UN
As to the kind of experiment: biochemical. The procedure:
as §5, §2, §3, §4

T2 sequence (O42275 24-633): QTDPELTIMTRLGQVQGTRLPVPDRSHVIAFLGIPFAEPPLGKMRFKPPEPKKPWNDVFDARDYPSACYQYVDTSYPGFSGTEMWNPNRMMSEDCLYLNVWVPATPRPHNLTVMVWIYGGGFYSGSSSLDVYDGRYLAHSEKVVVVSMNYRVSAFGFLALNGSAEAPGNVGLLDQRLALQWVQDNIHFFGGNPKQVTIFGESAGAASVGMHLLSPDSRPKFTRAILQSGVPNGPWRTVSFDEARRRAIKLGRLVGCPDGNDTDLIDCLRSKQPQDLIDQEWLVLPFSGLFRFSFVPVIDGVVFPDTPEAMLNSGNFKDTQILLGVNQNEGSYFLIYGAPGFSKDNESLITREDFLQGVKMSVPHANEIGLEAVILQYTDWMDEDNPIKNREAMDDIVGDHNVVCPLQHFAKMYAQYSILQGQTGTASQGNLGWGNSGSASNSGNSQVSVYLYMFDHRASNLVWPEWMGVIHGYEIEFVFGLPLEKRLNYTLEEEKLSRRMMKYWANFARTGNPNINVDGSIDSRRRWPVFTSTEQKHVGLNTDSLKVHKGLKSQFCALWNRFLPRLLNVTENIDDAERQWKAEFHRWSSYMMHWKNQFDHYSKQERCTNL
T1 sequence (P81908 whole entry): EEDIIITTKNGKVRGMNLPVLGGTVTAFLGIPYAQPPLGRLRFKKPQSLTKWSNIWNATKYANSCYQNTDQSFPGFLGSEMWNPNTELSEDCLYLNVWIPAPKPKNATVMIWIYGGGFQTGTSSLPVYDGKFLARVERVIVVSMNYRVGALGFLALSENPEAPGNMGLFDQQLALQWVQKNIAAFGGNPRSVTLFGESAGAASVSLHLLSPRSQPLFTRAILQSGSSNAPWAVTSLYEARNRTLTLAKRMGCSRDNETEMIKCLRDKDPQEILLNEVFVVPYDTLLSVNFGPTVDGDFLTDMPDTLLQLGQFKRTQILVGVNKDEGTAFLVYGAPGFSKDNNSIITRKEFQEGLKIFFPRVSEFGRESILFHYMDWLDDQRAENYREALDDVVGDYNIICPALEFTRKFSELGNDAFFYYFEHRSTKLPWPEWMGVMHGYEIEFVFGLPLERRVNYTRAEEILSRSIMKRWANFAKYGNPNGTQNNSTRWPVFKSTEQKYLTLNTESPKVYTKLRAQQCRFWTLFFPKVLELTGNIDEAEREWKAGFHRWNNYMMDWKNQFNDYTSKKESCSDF
Sequence of hCA I (P00915 whole entry): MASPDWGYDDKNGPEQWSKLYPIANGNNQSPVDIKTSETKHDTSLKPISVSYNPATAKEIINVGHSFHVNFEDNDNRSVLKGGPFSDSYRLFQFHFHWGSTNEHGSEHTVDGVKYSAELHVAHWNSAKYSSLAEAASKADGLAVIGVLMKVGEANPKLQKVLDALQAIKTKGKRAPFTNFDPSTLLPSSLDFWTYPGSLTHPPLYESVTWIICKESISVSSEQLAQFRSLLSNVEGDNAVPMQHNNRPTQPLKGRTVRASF

Broadly, the Ki is a dissociation constant, usually derived from enzyme kinetics or from competition with a known ligand. A higher Ki goes with lower affinity. For orientation: IC50 means the concentration needed to halve the response being measured. High values mean weaker potency, low ones greater potency. With `COc1ccc(C(=O)/C=C/c2c(-c3ccccc3)nc3sc(SCc4ccccc4)nn23)cc1` [8a, (E)-3-(2-(Benzylthio)-6-phenylimidazo[2,1-b][1,3,4]thiadiazol-5-yl)-1-(4-methoxyphenyl)prop-2-en-1-one], the Ki on hCA I (Lineweaver-Burk plots) is 81.2 ± 4.36 nM; at hCA II (Lineweaver-Burk plots), 49.3 ± 5.03 nM; at BChE (Lineweaver-Burk plots) it was 1.01 ± 0.08 nM; at AChE (Lineweaver-Burk plots), 3.86 ± 0.2 nM. Further, the IC50 against hCA I was 73 nM; at hCA II, 41.1 nM; against BChE, 1.37 nM; at AChE, 4.36 nM. In addition, the “inhibition type, BChE” value at BChE (Lineweaver-Burk plots) is reported as “competitive”. For the same compound, the “inhibition type, AChE” value at AChE (Lineweaver-Burk plots) is “competitive”.
For the compound `O=C(/C=C/c1c(-c2ccccc2)nc2sc(SCc3ccccc3)nn12)c1ccc(Cl)cc1` [8b, (E)-3-(2-(Benzylthio)-6-phenylimidazo[2,1-b][1,3,4]thiadiazol-5-yl)-1-(4-chlorophenyl)prop-2-en-1-one], the Ki at hCA I (Lineweaver-Burk plots) was 78 ± 5.48 nM; on hCA II (Lineweaver-Burk plots), 52.5 ± 6.24 nM; on BChE (Lineweaver-Burk plots), 1.7 ± 0.1 nM; on AChE (Lineweaver-Burk plots), 6.01 ± 0.35 nM. The IC50 on hCA I was found to be 64.4 nM; at hCA II it was 49.3 nM; against BChE, 1.95 nM; against AChE, 6.77 nM.
On to `COc1ccc(C(=O)/C=C/c2c(-c3ccccc3)nc3sc(SCc4ccc(F)cc4)nn23)cc1` [8c, (E)-3-(2-((4-Fluorobenzyl)thio)-6-phenylimidazo[2,1-b][1,3,4]thiadiazol-5-yl)-1-(4-methoxyphenyl)prop-2-en-1-one], for which the Ki at hCA II (Lineweaver-Burk plots) worked out at 36.1 ± 5.36 nM; at BChE (Lineweaver-Burk plots) it was 1.56 ± 0.06 nM; at AChE (Lineweaver-Burk plots), 11.3 ± 1.02 nM. The “inhibition type, hCA II” value against hCA II (Lineweaver-Burk plots) is “non-competitive”. Besides, the IC50 against hCA II came out at 30.2 nM; against BChE, 2.03 nM; against AChE it was 13 nM.
Turning to `O=C(/C=C/c1c(-c2ccccc2)nc2sc(SCc3ccc(F)cc3)nn12)c1ccc(Cl)cc1` [8d, (E)-1-(4-Chlorophenyl)-3-(2-((4-fluorobenzyl)thio)-6-phenylimidazo[2,1-b][1,3,4]thiadiazol-5-yl)prop-2-en-1-one], the Ki at hCA I (Lineweaver-Burk plots) was 45.1 ± 3.91 nM; at hCA II (Lineweaver-Burk plots), 39.6 ± 4.91 nM; at BChE (Lineweaver-Burk plots), 1.78 ± 0.12 nM; at AChE (Lineweaver-Burk plots) it was 7.98 ± 0.6 nM. The “inhibition type, hCA I” value at hCA I (Lineweaver-Burk plots) was “non-competitive”. The IC50 against hCA I was determined as 39.1 nM; at hCA II, 34.1 nM; on BChE, 1.98 nM; against AChE it was 9.3 nM.
